Like-named read-outs stand apart in the source and are kept apart here.
Columns and labels:
[1] = children, cited from earlier work
[2] = test system: relapsed/refractory solid tumors or acute leukemia; assay: Phase 2 trial; format: in vivo, human
[3] = test system: relapsed or refractory solid tumors; details: cited from earlier work
[4] = Plasma pharmacokinetics in children and adolescents, with UGT1A1 phenotype; format: in vivo, human; details: for concentration at 4 day: 80 mg/m^2, Alisertib Cmin Median (range), day 4, I/E, I, P
[5] = test system: NBL xenografts; details: PPTP; cited from earlier work
[6] = test system: ALL-8 xenograft; assay: ALL-8 xenograft, comparison of dosing schedules; format: in vivo, NOD/SCID mice
[7] = cited from earlier work
[8] = test system: ALL-19 xenograft; assay: ALL-19 xenograft, comparison of dosing schedules; format: in vivo, NOD/SCID mice
[9] = test system: atypical teratoid rhabdoid (ATRT) cell lines; details: ATRT cell lines that overexpress AAK with SMARCB1 mutations; cited from earlier work
[10] = test system: p53-wildtype, therapy-refractory NBL cell lines; details: cited from earlier work
[11] = test system: pediatric solid tumor models; details: cited from earlier work
[12] = mice receiving 10 mg/kg; cited from earlier work
[13] = test system: ALL xenografts; details: PPTP; cited from earlier work
[14] = adults; twice daily for 7 days; DLT neutropenia and stomatitis; cited from earlier work
[15] = Toxicity versus germline AURKA genotype; format: in vivo, human
[16] = Phase 2 trial toxicity monitoring; format: in vivo, human
[17] = Acute Lymphoblastic Leukemia, 10 response evaluable
[18] = Ewing Sarcoma, 10 response evaluable
[19] = Germ Cell Tumor, 7 response evaluable
[20] = Hepatoblastoma, 8 response evaluable
[21] = Neuroblastoma (MIBG Evaluable), 24 response evaluable
[22] = Neuroblastoma (Measurable), 24 response evaluable
[23] = Non-Rhabdo Soft Tissue Sarcoma, 10 response evaluable
[24] = Osteosarcoma, 10 response evaluable
[25] = Rhabdoid Tumors, 4 response evaluable
[26] = Rhabdomyosarcoma, 10 response evaluable
[27] = Total, all strata, 137 response evaluable
[28] = Wilms tumor, 10 response evaluable
[29] = Schedule A, 10.4 mg/kg oral gavage twice daily × 7 days
[30] = Schedule A, twice daily × 7 days
[31] = Schedule B, 10.4 mg/kg oral gavage twice daily × 5 days × 3 weeks
[32] = Schedule B, twice daily × 5 days × 3 weeks
[33] = adults, 50 mg enteric coated tablets
[34] = population PK model, 363 adults, 7 single agent trials
[35] = human, in vivo, 1 cycle (21 days)

COc1cc(Nc2ncc3c(n2)-c2ccc(Cl)cc2C(c2c(F)cccc2OC)=NC3)ccc1C(=O)O [alisertib, Alisertib]
Trough 24 hours after the first dose ([1]; 80 mg/m^2 dose level): 1.1 µM
Cmax ([1]; recommended dose 80 mg/m^2): 7500 ± 100 nM
Non-responders [2, 17]: 1
Progressive Disease [2, 17]: 6
Stable Disease n patients [2, 17]: 3 n patients
Non-responders ([2]; Acute Myeloid Leukemia, 10 response evaluable): 10
Non-responders [2, 18]: 2
Progressive Disease [2, 18]: 5
Stable Disease n patients [2, 18]: 3 n patients
Non-responders [2, 19]: 1
Progressive Disease [2, 19]: 4
Stable Disease n patients [2, 19]: 2 n patients
Stable Disease cycles administered ([2]; Hepatoblastoma): 5 cycles
Non-responders [2, 20]: 2
Progressive Disease [2, 20]: 4
Stable Disease n patients [2, 20]: 1 n patients
Stable Disease median (range) cycles administered ([2]; Neuroblastoma (MIBG Evaluable)): 13 (5–35) cycles
Non-responders [2, 21]: 4
Progressive Disease [2, 21]: 9
Stable Disease n patients [2, 21]: 9 n patients
Non-responders [2, 22]: 5
Progressive Disease [2, 22]: 16
Stable Disease n patients [2, 22]: 2 n patients
Stable Disease cycles administered ([2]; Non-Rhabdo Soft Tissue Sarcoma): 5 cycles
Non-responders [2, 23]: 2
Progressive Disease [2, 23]: 7
Stable Disease n patients [2, 23]: 1 n patients
Responses in the other primary disease strata ([2]; OS, EWS, RMS, ALL, AML): No responses
Non-responders [2, 24]: 2
Progressive Disease [2, 24]: 8
Non-responders [2, 25]: 1
Progressive Disease [2, 25]: 3
Stable Disease cycles administered ([2]; Rhabdomyosarcoma): 15 cycles
Non-responders [2, 26]: 2
Progressive Disease [2, 26]: 7
Stable Disease n patients [2, 26]: 1 n patients
Non-responders [2, 27]: 33
Progressive Disease [2, 27]: 76
Stable Disease n patients [2, 27]: 23 n patients
Stable Disease cycles administered ([2]; Wilms tumor): 31 cycles
Non-responders [2, 28]: 1
Progressive Disease [2, 28]: 7
Stable Disease n patients [2, 28]: 1 n patients
Objective responses observed ([2]; all strata, 137 evaluable for response): Five
Objective response rate ([2]; children and adolescents receiving single agent alisertib): less than 5%
Duration of stable disease ([3]; 8 children, phase 1 trial): 5–35 cycles
Children with stable disease ([3]; NBL (n=4) and sarcoma (n=4), of 33 response evaluable children): 8
Recommended phase 2 dose ([3]; children and adolescents, orally, once daily for 7 days): 80 mg/m^2
Children with a PR ([3]; hepatoblastoma, of 33 response evaluable children): one
Patients exceeding the 1 μM target trough concentration on day 4 ([4]; 26/39 patients): 67%
Difference in population mean trough concentrations ([4]; IM/PM versus EM, p 0.0091): 1.05 µM
Patients with Cmin exceeding 1μM on day 7 ([4]; human, in vivo, 7 day): 41%
concentration at 4 day ([4]; human, plasma, oral, Grade ≥ 2: Yes (n=8)): 1800 nM
concentration at 4 day ([4]; human, plasma, oral, Grade ≥ 2, No (n=8)): 2220 nM
concentration at 7 day ([4]; human, plasma, oral, 80 mg/m^2, Median Cmin on day 7, cycle 1): 900 nM
Difference in population mean trough concentrations ([4]; with versus without ≥ grade 2 toxicities, not statistically significant): 0.08 µM
Xenografts with maintained complete responses [5]: 3 of 7
Objective response ([6]; Schedule A and Schedule B): neither of the treatment schedules induced an objective response
Median EFS Treated [6, 29]: 19.8 days
EFS T-C [6, 30]: 10.9 days
EFS T/C [6, 30]: 2.2
Median EFS Treated [6, 31]: 31.9 days
EFS T-C [6, 32]: 23.0 days
EFS T/C [6, 32]: 3.6
Human cells in the bone marrow, lowest levels achieved ([6]; both alisertib schedules): approximately 20%
Human cells in the spleen, lowest levels achieved ([6]; both alisertib schedules): 5–10%
Additional delay of leukemia progression, Schedule B compared with Schedule A ([6]; p=0.004): 12.1 days
Area under concentration time curve (AUC) [7, 33]: 20.9 µM·h
Steady state trough concentration (Cmin) [7, 33]: exceeding 1 μM
AUC0–24 h ([7]; patients receiving 50 mg BID): 40 µM·h
Cmax ([7]; patients receiving 50 mg BID): 1300 nM
Apparent clearance (CL/F) [7, 34]: 4.25 L/h
Terminal half-life [7, 34]: 19.3 h
Average trough concentrations ([7]; recommended phase 2 dose of 50 mg BID for 7 days): exceeded 1 μM
Median EFS Treated [8, 29]: 13.6 days
Leukemia progression compared with controls ([8]; Schedule A, serial peripheral blood parameters): not significantly different from that of controls
EFS T-C [8, 30]: 7.0 days
EFS T/C [8, 30]: 2.0
Median Response Score [8, 30]: PD2
Median EFS Treated [8, 31]: 31.2 days
EFS T-C [8, 32]: 24.6 days
EFS T/C [8, 32]: 4.7
Effect on cell lines [9]: induce cell death and augment radiation sensitivity
Activity in cell lines [10]: active
Event free survival ([11]; Wilms tumor, rhabdomyosarcoma and osteosarcoma xenograft models): Statistically significant improvement
Solid tumor models with objective responses ([11]; pediatric xenograft models): 80%
12 h level [12]: 1.2 µM
AUC0–24 h [12]: 39 µM·h
Cmax [12]: 16000 nM
Xenografts with maintained complete responses [13]: 6 out of 6
Recommended dose [14]: 50 mg
Cycle 1 DLT No ([15]; AURKA 91 A>T VV): 8
Grade 2+ Toxicity Yes ([15]; AURKA 91 A>T VV): 8
Cycle 1 DLT Yes ([15]; AURKA 91 A>T WV): 5
Grade 2+ Toxicity No ([15]; AURKA 91 A>T WV): 5
Cycle 1 DLT Yes ([15]; AURKA 91 A>T WW): 8
Grade 2+ Toxicity No ([15]; AURKA 91 A>T WW): 9
Cycle 1 DLT No ([15]; AURKA 169G>A VV): 2
Grade 2+ Toxicity No ([15]; AURKA 169G>A VV): 1
Grade 2+ Toxicity Yes ([15]; AURKA 169G>A VV): 1
Cycle 1 DLT No ([15]; AURKA 169G>A WV): 18
Cycle 1 DLT Yes ([15]; AURKA 169G>A WV): 3
Grade 2+ Toxicity No ([15]; AURKA 169G>A WV): 4
Cycle 1 DLT Yes ([15]; AURKA 169G>A WW): 10
Grade 2+ Toxicity No ([15]; AURKA 169G>A WW): 9
Grade 2+ Toxicity Yes ([15]; AURKA 169G>A WW): 54
Cycle 1 DLT No ([15]; AURKA Haplotype H1): 25
Cycle 1 DLT Yes ([15]; AURKA Haplotype H1): 5
Grade 2+ Toxicity No ([15]; AURKA Haplotype H1): 4
Cycle 1 DLT Yes ([15]; AURKA Haplotype H2): 8
Grade 2+ Toxicity No ([15]; AURKA Haplotype H2): 10
Cycle 1 DLT Yes ([15]; Total genotyped patients): 13
Grade 2+ Toxicity No ([15]; Total genotyped patients): 14
Dehydration Grade 3 ([16]; alisertib related, all cycles (n=500)): 6 (1.2%) n (%)
Patients with fatal adverse events possibly related to alisertib ([16]; during cycle 1): two
ALT increased Grade 3 ([16]; human, in vivo): 17 (3.4%) n (%)
AST increased Grade 3 ([16]; human, in vivo): 10 (2%) n (%)
Alisertib-related grade 3 or 4 anemia ([16]; human, in vivo): 13.6%
Alisertib-related grade 3 or 4 leukopenia ([16]; human, in vivo): 33%
Alisertib-related grade 3 or 4 lymphopenia ([16]; human, in vivo): 12.2%
Alisertib-related grade 3 or 4 neutropenia ([16]; human, in vivo): 51.8%
Alisertib-related grade 3 or 4 thrombocytopenia ([16]; human, in vivo): 20.8%
Anemia Grade 3 ([16]; human, in vivo): 63 (12.6%) n (%)
Anemia Grade 4 ([16]; human, in vivo): 5 (1%) n (%)
Anorexia Grade 3 ([16]; human, in vivo): 1 (0.2%) n (%)
Depression Grade 4 ([16]; human, in vivo): 1 (0.2%) n (%)
Diarrhea Grade 3 ([16]; human, in vivo): 2 (0.4%) n (%)
Dizziness Grade 3 ([16]; human, in vivo): 14 (2.8%) n (%)
Enterocolitis Grade 3 ([16]; human, in vivo): 1 (0.2%) n (%)
Febrile neutropenia Grade 3 ([16]; human, in vivo): 18 (3.6%) n (%)
GGT increased Grade 3 ([16]; human, in vivo): 1 (0.2%) n (%)
Hepatic hemorrhage Grade 5 ([16]; human, in vivo): 1 (0.2%) n (%)
Hyperbilirubinemia Grade 3 ([16]; human, in vivo): 3 (0.6%) n (%)
Hypersomnia Grade 3 ([16]; human, in vivo): 1 (0.2%) n (%)
Hyperuricemia Grade 4 ([16]; human, in vivo): 1 (0.2%) n (%)
Hypoalbuminemia Grade 3 ([16]; human, in vivo): 1 (0.2%) n (%)
Hypocalcemia Grade 3 ([16]; human, in vivo): 1 (0.2%) n (%)
Hypokalemia Grade 3 ([16]; human, in vivo): 4 (0.8%) n (%)
Hypokalemia Grade 4 ([16]; human, in vivo): 1 (0.2%) n (%)
Hyponatremia Grade 3 ([16]; human, in vivo): 3 (0.6%) n (%)
Hypophosphatemia Grade 3 ([16]; human, in vivo): 1 (0.2%) n (%)
INR increased Grade 3 ([16]; human, in vivo): 1 (0.2%) n (%)
Infection Grade 3 ([16]; human, in vivo): 1 (0.2%) n (%)
Leukopenia Grade 3 ([16]; human, in vivo): 117 (23.4%) n (%)
Leukopenia Grade 4 ([16]; human, in vivo): 48 (9.6%) n (%)
Lymphopenia Grade 3 ([16]; human, in vivo): 47 (9.4%) n (%)
Lymphopenia Grade 4 ([16]; human, in vivo): 14 (2.8%) n (%)
Nausea Grade 3 ([16]; human, in vivo): 2 (0.4%) n (%)
Neutropenia Grade 3 ([16]; human, in vivo): 124 (24.8%) n (%)
Neutropenia Grade 4 ([16]; human, in vivo): 137 (27.4%) n (%)
Oral mucositis Grade 3 ([16]; human, in vivo): 19 (3.8%) n (%)
Palmar-plantar erythrodysesthesia Grade 3 ([16]; human, in vivo): 2 (0.4%) n (%)
Photophobia Grade 3 ([16]; human, in vivo): 1 (0.2%) n (%)
Pneumonia Grade 3 ([16]; human, in vivo): 1 (0.2%) n (%)
Respiratory failure Grade 5 ([16]; human, in vivo): 1 (0.2%) n (%)
Serum amylase increased Grade 3 ([16]; human, in vivo): 1 (0.2%) n (%)
Thrombocytopenia Grade 3 ([16]; human, in vivo): 54 (10.8%) n (%)
Thrombocytopenia Grade 4 ([16]; human, in vivo): 50 (10%) n (%)
Tumor lysis syndrome Grade 4 ([16]; human, in vivo): 1 (0.2%) n (%)
Urinary tract infection Grade 3 ([16]; human, in vivo): 1 (0.2%) n (%)
Vomiting Grade 3 ([16]; human, in vivo): 2 (0.4%) n (%)
Patients who experienced dose limiting toxicity [16, 35]: 18 patients
Patients who experienced dose limiting toxicity, percent [16, 35]: 13%
Oral pain Grade 3 ([16]; human, in vivo, po): 5 (1%) n (%)
Most frequent toxicity ([16]; in vivo): myelosuppression

— paper PMC6897379 (Clinical cancer research : an official journal of the …, 2019)
